Laboratory results: patent US20240391978A1, “APOLIPOPROTEIN FUSION PROTEINS FOR CELL-SPECIFIC IMMUNE REGULATION” (BIO-TRIP B.V., priority 2021, published 2024)
Entries after “also recorded” stand apart in the source; their conditions may differ.

Experiments:
primary human monocytes [1] = assay: In vitro model of trained immunity in primary human monocytes; format: cell-based; conditions: 1 hour pre-incubation with inhibitor (Table 2) before IL4 training
Text: In vitro model of trained immunity in primary human monocytes: To induce trained immunity in primary human monocytes, a previously optimized and published method was used (Dominguez-Andres, J. et al. In vitro induction of trained immunity in adherent human monocytes. STAR Protoc 2, 100365, doi:10.1016/j.xpro.2021.100365 (2021); van Lier, D., Geven, C., Leijte, G. P. & Pickkers, P. Experimental human endotoxemia as a model of systemic inflammation. Biochimie 159, 99-106, doi:10.1016/j.biochi.2018.06.014 (2019)). Briefly: monocytes were adhered to a flat-bottom cell culture plate for 1 hour and washed with warm PBS to remove any non-adherent cells and cell debris. Then, they were stimulated (“trained”) for 24 hours with one of the stimuli detailed in Table 1, or medium only (“untrained” control).
(§1) For pharmacological inhibition experiments, the monocytes were pre-incubated for 1 hour with one of the inhibitors described in Table 2 before addition of the training stimulus.
Following the initial 24-hour stimulation, the cells were washed with warm PBS and warm cell culture medium was added. The monocytes were then allowed to rest and differentiate into macrophages for 5 days. On day 6, the induction of trained immunity was assessed. To this end, the cells were typically re-stimulated with LPS for an additional 24 hours to elicit cytokine production. The supernatants were collected and stored at −20° C. until further analysis, e.g. with ELISA for IL6 and TNF.
(§2) Cytokine and lactate measurements: TNF, IL6, and IL1Ra were measured in cell culture supernatants using duoset ELISA kits (R&D systems), according to the manufacturer's instructions. For lactate measurements, a fluorometric assay was used. 30 μl sample, medium control, or known standard was added to a black 96-well plate. Then, 30 μl reaction mix (PBS pH 7.4, horse radish peroxidase (0.2 U/ml), lactate oxidase (2 U/ml), Amplex red (100 μM; Fisher scientific)) was added and the reaction was incubated for 20 minutes in the dark at RT. Immediately thereafter, fluorescence was measured at 530/25 nm and 590/35 nm. Gen5 software (v3.03, BioTek) was used in conjunction with Microsoft Excel to calculate cytokine and lactate concentrations in the original samples.

primary human monocytes [2] = assay: In vitro inflammation inhibition, LPS-stimulated monocytes; format: cell-based; conditions: 1 hour pre-incubation with inhibitor (Table 2), IL4 + LPS 24 h
Procedure: as §1
In vitro inflammation inhibition: Monocytes were adhered to a flat-bottom cell culture plate for 1 hour and washed with warm PBS to remove any non-adherent cells and cell debris. […] Following the initial 24-hour stimulation, the supernatants were collected and stored at −20° C. until further analysis with ELISA for IL6 and TNF.
as §2

HEK-Blue™ IL4/IL13 cells = assay: Human embryonic kidney 293 IL4 reporter cell assay (Example 2); format: cell-based; conditions: IL4Rα/STAT6-inducible reporter
Procedure: This cell line has a fully active STAT6 pathway and carries a STAT6-inducible SEAP reporter gene. […] The levels of secreted SEAP can be determined with QUANTI-Blue™ (Invivogen). 180 μL DMEM with 10% FBS and 1% Pen-Strep containing […] was added per well in a 96-well-plate. Subsequently, 20 μL stimulus or vehicle was added and cells were incubated for 20-24 hours at 37° C. Subsequently, 180 μL QUANTI-Blue was added per well to a separate 96-well-plate (flat-bottom) and 20 μL of the cell supernatant was added. The plate was incubated for 1-3 hours at 37° C. and absorbance at 640 nm was measured on a Tecan Spark plate reader to determine SEAP levels.

[3] = molecular target: T1, IL4 receptor in human monocytes (Homo sapiens, UniProt P24394); assay: Super-resolution fluorescence microscopy (dSTORM) of interactions with IL4 receptor; format: cell-based
T1 construct: Human monocytes were isolated from a healthy donor's peripheral blood as described above; endogenous in cells; host or cells: primary human monocytes from a healthy donor's peripheral blood
T1 sequence (P24394 26-825): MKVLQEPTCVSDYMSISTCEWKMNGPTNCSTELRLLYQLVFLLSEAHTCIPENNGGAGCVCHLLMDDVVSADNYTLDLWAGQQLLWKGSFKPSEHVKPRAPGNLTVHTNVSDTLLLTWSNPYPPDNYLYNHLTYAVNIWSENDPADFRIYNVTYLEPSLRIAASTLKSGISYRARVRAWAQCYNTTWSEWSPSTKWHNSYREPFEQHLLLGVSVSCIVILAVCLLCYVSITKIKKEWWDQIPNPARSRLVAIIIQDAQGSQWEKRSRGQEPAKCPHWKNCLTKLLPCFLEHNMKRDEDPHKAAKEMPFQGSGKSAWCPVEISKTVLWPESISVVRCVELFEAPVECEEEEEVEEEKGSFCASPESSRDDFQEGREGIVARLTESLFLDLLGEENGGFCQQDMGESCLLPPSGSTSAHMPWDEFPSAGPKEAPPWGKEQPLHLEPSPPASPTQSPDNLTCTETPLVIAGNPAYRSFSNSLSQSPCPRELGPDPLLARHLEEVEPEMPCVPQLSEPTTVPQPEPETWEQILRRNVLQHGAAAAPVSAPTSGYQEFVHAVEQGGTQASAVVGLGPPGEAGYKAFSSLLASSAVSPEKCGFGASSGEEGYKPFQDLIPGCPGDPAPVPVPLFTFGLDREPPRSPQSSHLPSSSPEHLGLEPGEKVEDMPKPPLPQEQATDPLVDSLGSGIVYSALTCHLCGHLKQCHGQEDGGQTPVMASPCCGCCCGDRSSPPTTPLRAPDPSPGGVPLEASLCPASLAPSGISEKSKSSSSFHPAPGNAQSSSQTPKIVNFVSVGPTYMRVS
Procedure: 100,000 monocytes were seeded per well on a cell culture-treated chambered coverslip (μ-Slide 8-well, IBID). After 2 hours of incubation at 37° C. […] Subsequently, the cells were washed with PBS and fixed with 4% PFA for 20 minutes. […] The stained cells were stored in PBS at 4° C. For the direct stochastic optical reconstruction microscopy (dSTORM), the cells were immersed in GLOXY imaging buffer (40 μg/ml catalase, 0.5 mg/ml glucose oxidase, 5% glucose and 0.01 M cysteamine in PBS, pH 8.0) for a few minutes before and during the imaging. The acquisition was performed in Total Internal Reflection Fluorescence (TIRF) mode, using ONI Nanoimager (ONI, Oxford, UK). It is equipped with a 100×/1.4NA oil immersion objective, a sCMOS camera, and, in this study, 488 nm (200 mW) and 640 nm (1000 mW) lasers were used. 10000 frames were acquired with a 10 ms exposure time with the field of view of 50×80 μm. Raw data were processed using the ThunderSTORM software, yielding images with a spatial resolution of 10 nm.

CD8 receptor = molecular target: T2, CD8 receptor (Mus musculus, UniProt P01731+P10300); assay: In vitro binding of VHHCD8-apoA1 in mice splenocytes; format: cell-based; conditions: 30 minutes at 4° C.
T2 construct: Spleens were obtained from mice, cut into pieces, and strained through a 70 μm strainer; from tissue; host or cells: mouse spleen (freshly isolated splenocytes)
Procedure: In vitro binding of VHHCD8-apoA1 in mice splenocytes: Spleens were obtained from mice, cut into pieces, and strained through a 70 μm strainer (Corning) multiple times to obtain a splenocyte suspension. Cells were spun down at 1500 rpm for 10 minutes, the supernatant was removed and the cells were dissolved in 2 mL 1× red blood cell lysis buffer (Thermofisher). Suspension was incubated at room temperature for 5 minutes, 10 mL Roswell Park Memorial Institute (RPMI) medium (Thermofisher) was added, and cells were again spun down at 1500 rpm for 10 minutes. Cells were then redissolved in RPMI medium and plated in a 96 wells plate at 150.000 cells/well.
The proteins were labeled by adding sulfo-cyanine5-maleimide (Lumiprobe) in dimethyl sulfoxide (DMSO) at a 5× molar excess. This mixture was incubated at room temperature for 2 hours. Excess dye was removed using a PD minitrap G-25 desalting column (Cytiva). Fluorescently labeled aNPs were formulated by adding 6.4 μg Dil for discoidal formulations and 21 μg Dil for spherical formulations (see section “formulating nanoparticles” of Example 2). […] (for aNPs) after which cells were harvested, washed, and stained for CD3 and CD4 and measured on Cytoflex (Beckman Coulter Inc.). Flow cytometry data was analyzed using FlowJo software (BD).

[4] = molecular target: T3, CD8 receptor on mouse splenocytes (mouse, UniProt P01731 28-247; P10300 22-213); assay: flow cytometry, fluorescently labelled protein on mouse splenocytes; upper panel 'MFI APC (CD8+) of CD3+ T cells'
T3 construct: whole, on cells
T3 sequence (P01731 28-247, chain 1 of 2): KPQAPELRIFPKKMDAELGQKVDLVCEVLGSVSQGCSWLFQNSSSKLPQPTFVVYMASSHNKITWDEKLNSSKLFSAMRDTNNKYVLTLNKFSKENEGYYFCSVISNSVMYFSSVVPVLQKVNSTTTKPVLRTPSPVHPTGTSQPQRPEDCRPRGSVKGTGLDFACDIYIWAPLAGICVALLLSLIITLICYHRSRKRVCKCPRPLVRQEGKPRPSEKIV
T3 sequence (P10300 22-213, chain 2 of 2): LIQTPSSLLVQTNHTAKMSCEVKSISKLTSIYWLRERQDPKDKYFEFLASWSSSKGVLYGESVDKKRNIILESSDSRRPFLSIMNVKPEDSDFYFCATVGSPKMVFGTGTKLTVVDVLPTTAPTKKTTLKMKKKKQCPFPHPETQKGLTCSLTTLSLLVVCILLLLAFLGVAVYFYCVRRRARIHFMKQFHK
Procedure: The proteins were labeled by adding sulfo-cyanine5-maleimide (Lumiprobe) in dimethyl sulfoxide (DMSO) at a 5× molar excess. This mixture was incubated at room temperature for 2 hours. Excess dye was removed using a PD minitrap G-25 desalting column (Cytiva). […] Fluorescently labeled fusion proteins or aNPs and controls were added to the wells and incubated for 30 minutes at 4° C. (for proteins) or 37° C. (for aNPs) after which cells were harvested, washed, and stained for CD3 and CD4 and measured on Cytoflex (Beckman Coulter Inc.). Flow cytometry data was analyzed using FlowJo software (BD).

T2 sequence (P01731 28-247): as the sequence (P01731 28-247, chain 1 of 2) above
T2 sequence (P10300 22-213): as the sequence (P10300 22-213, chain 2 of 2) above

CCC(=O)N1CCN(c2ccc(-n3c(=O)ccc4cnc5ccc(-c6cnc7ccccc7c6)cc5c43)cc2C(F)(F)F)CC1 [torin-1, Torin-1, reference compound]
effect of inhibitor on trained immunity induction by IL4 (TNF, IL6) (primary human monocytes [1]): diminished the trained immunity responses; also recorded: significantly blunted
effect of inhibitor on IL4's inhibition of acute inflammation (TNF, IL6) (primary human monocytes [2]): did not abrogate the effect of IL4 on acute inflammation

apoA1-IL4: fusion protein of human apoA1 and human IL4 via flexible linker, 6his-tag and strep-tag (e.g. SEQ ID NO. 35)
SEAP production by HEK-IL4 reporter cells (HEK-Blue™ IL4/IL13 cells): prominently produced

apoA1
binding to primary human monocytes (rim covering the cell surface) ([3]; Cy5-labeled, 2 h at 37° C.): confirmed
association with IL4Rα on the cell surface (co-clusters) ([3]; zoomed in section of the membrane): did not observe
Mean Fluorescence Intensity (MFI) of fluorescently labeled protein (CD8 receptor): did not show this dose dependent behavior

NC(=O)c1cnc(NCCc2ccc(O)c(Cl)c2)nc1NCc1ccccc1 [AS1517499, reference compound]
effect of inhibitor on trained immunity induction by IL4 (TNF, IL6) (primary human monocytes [1]): did not affect trained immunity induction by IL4
effect of inhibitor on IL4's inhibition of acute inflammation (TNF, IL6) (primary human monocytes [2]): partly restored cytokine production in acute inflammatory responses

B1: VHHCD8-apoA1 fusion protein (VHH)
VHH: QVQLQESGGGLVQAGGSLRLSCAASGFTFDDYAIGWFRQAPGKEREGVSCINNSDGSGYVADSVKGRFTISSDNAKNTVYLQMNSLKPEDTAVYYCAAAGDGGCYYGLDYWGKGTQVTVSS
modifications: labelled with sulfo-cyanine5-maleimide (the linker between apoA1 and VHHCD8 comprises a cysteine)
notes: Fusion of an anti-CD8 VHH with apoA1, expressed in ClearColi; molecular weight 43.3 kDa
EC50 (read off the curve) [4]: ~5 nM
